In patent US8247394B2 (Cempra Pharmaceuticals Inc., priority 2010, dated 2012):
≈ marks a conversion by molar mass, not a printed value. Like-named read-outs stand apart in the source and are kept apart here. Blank lines part the entries; values can stand above or below the molecule they belong to.

Assays:
[1] = tested on: C. trachomatis; assay: In vitro susceptibility testing of C. trachomatis in cell culture using HEp-2 cells (MIC/MBC); assay type: cell-based, Chlamydia trachomatis; details: for MBC / MIC90 / MIC: Chlamydia trachomatis
Description: Chlamydia isolates: 10 isolates of C. trachomatis in order to determine the MIC90 and MBC90 for each antibiotic.
C. trachomatis: 10 isolates of C. trachomatis, including standard isolates from the ATCC (E-BOUR, F-IC-CAL3, C-HAR32, J-UW-36, L2434, D-UW-57kx, B-HAR-36) and recent clinical isolates N18 (cervical), N19 (cervical), 7015 (infant eye).
In vitro susceptibility testing: Susceptibility testing of C. trachomatis was performed in cell culture using HEp-2 cells grown in 96-well microtiter plates. Each well was inoculated with 0.1 ml of the test strain diluted to yield 10^3 to 10^4 IFU/per ml, centrifuged at 1,700×g for 1 hr and incubated at 35° C. for 1 hr. Wells were then aspirated and overlaid with 0.2 ml of medium containing 1 μg of cycloheximide per ml and serial two fold dilutions of the test drug. Duplicate plates were inoculated. After incubation at 35° C. for 48-72 hrs, cultures were fixed and stained for inclusions with fluorescein-conjugated antibody to the lipopolysaccharide genus antigen ([…]™, Kallestad Diagnostics, Chaska, Minn.). The minimal inhibitory concentration (MIC) was the lowest antibiotic concentration at which no inclusions are seen. The minimal bactericidal concentration (MBC) was determined by aspirating the antibiotic containing medium, washing wells twice with phosphate buffered saline and adding antibiotic-free medium. Cultures were frozen at −70° C., thawed, passed onto new cells, incubated for 72 hrs then fixed and stained as above. The MBC was the lowest antibiotic concentration that results in no inclusions after passage. All tests were run in triplicate.
Ten isolates of C. trachomatis including standard isolates from the ATCC (E-BOUR, F-IC-CAL3, C-HAR32, J-UW-36, L2434, D-UW-57kx, B-HAR-36) and recent clinical isolates N18 (cervical), N19 (cervical), 7015 (infant eye) were selected for study. Susceptibility testing was performed in cell culture using HEp-2 cells (Roblin et. al. Antimicrob. Agents Chemother. 42:194-196 (1998)) at State University of New York, Downstate Medical Center (Brooklyn, N.Y., USA).

[2] = tested on: N. gonorrhoeae; assay: Reference agar dilution susceptibility testing (CLSI M07-A8) of N. gonorrhoeae clinical isolates; assay type: cell-based, Neisseria gonorrhoeae; details: for % by category, R (resistant); resistance rate / % by category, S (susceptible): CLSI criteria, 35 strains
Description: Thirty-five clinical isolates of N. gonorrhoeae collected in the United States (USA), Asia and European medical centers since 2005 were tested using reference agar dilution methods per Clinical and Laboratory Standards Institute (CLSI) M07-A8 (Clinical and Laboratory Standards Institute. 2009. M07-A8, Methods for dilution antimicrobial susceptibility tests for bacteria that grow aerobically; approved standard—eighth edition. Wayne, Pa.: CLSI) and M100-S20 documents (Clinical and Laboratory Standards Institute. 2010. M100-S20, Performance standards for antimicrobial susceptibility testing, 20th informational supplement. Wayne, Pa.: CLSI). […] Quality control (QC) ranges and interpretive criteria for comparator compounds were as published by CLSI (Clinical and Laboratory Standards Institute. 2010. M100-S20, Performance standards for antimicrobial susceptibility testing, 20th informational supplement. Wayne, Pa.: CLSI).

[3] = blood; cited from earlier work
[4] = number of isolates among 35 strains
[5] = 10 strains of C. trachomatis, read-out: MBC90
[6] = Neisseria gonorrhoeae, 35 N. gonorrhoeae strains, read-out: MIC50

MIC 90% ([1]; 10 strains): 0.06 µg/mL (≈ 0.0802 µM)
MIC Range ([1]; 10 strains): 0.015 to 0.12 µg/mL
MIC90 ([1]; 10 strains of C. trachomatis): 0.06 µg/mL (≈ 0.0802 µM)
Molecule: CC[C@H]1OC(=O)[C@H](C)[C@@H](O[C@H]2C[C@@](C)(OC)[C@@H](O)[C@H](C)O2)[C@H](C)[C@@H](O[C@@H]2O[C@H](C)C[C@H](N(C)C)[C@H]2O)[C@](C)(OC)C[C@@H](C)C(=O)[C@H](C)[C@@H](O)[C@]1(C)O [Clarithromycin, clarithromycin]
MBC Range ([1]; 10 strains): 0.015 to 0.12 µg/mL
MBC ([1]; 10 strains, read-out: MBC 90%): 0.06 µg/mL (≈ 0.0802 µM)

Molecule: penicillin
MIC50 ([2]; 35 N. gonorrhoeae strains): 1 µg/mL
% by category, R (resistant); resistance rate [2]: 45.7%
% by category, S (susceptible) [2]: 22.9%
Occurrences at MIC 0.015 μg/ml [2, 4]: 1
Occurrences at MIC 0.03 μg/ml [2, 4]: 4
Occurrences at MIC 0.06 μg/ml [2, 4]: 3
Occurrences at MIC 0.25 μg/ml [2, 4]: 2
Occurrences at MIC 0.5 μg/ml [2, 4]: 4
Occurrences at MIC 1 μg/ml [2, 4]: 5
Occurrences at MIC 2 μg/ml [2, 4]: 6
Occurrences at MIC 4 μg/ml [2, 4]: 4
Occurrences at MIC >4 μg/ml [2, 4]: 6

MIC 90% ([1]; 10 strains): 0.06 µg/mL (≈ 0.0739 µM)
MIC Range ([1]; 10 strains): 0.015 to 0.25 µg/mL
MIC90 ([1]; 10 strains of C. trachomatis): 0.06 µg/mL (≈ 0.0739 µM)
Molecule: CC[C@H]1OC(=O)[C@H](C)C(=O)[C@H](C)[C@@H](O[C@@H]2O[C@H](C)C[C@H](N(C)C)[C@H]2O)[C@](C)(OC)C[C@@H](C)C(=O)[C@H](C)[C@H]2N(CCCCn3cnc(-c4cccnc4)c3)C(=O)O[C@]12C [Telithromycin, telithromycin]
MBC Range ([1]; 10 strains): 0.015 to 0.25 µg/mL
MBC ([1]; 10 strains, read-out: MBC 90%): 0.06 µg/mL (≈ 0.0739 µM)

MIC 90% ([1]; 10 strains): 0.06 µg/mL (≈ 0.135 µM)
MIC Range ([1]; 10 strains): 0.015 to 0.06 µg/mL
MIC90 ([1]; 10 strains of C. trachomatis): 0.06 µg/mL (≈ 0.135 µM)
Molecule: C[C@H]1c2cccc(O)c2C(=O)C2=C(O)[C@]3(O)C(=O)C(C(N)=O)=C(O)[C@@H](N(C)C)[C@@H]3[C@@H](O)[C@@H]21 [Doxycycline, doxycycline]
MBC Range ([1]; 10 strains): 0.015 to 0.06 µg/mL
MBC ([1]; 10 strains, read-out: MBC 90%): 0.06 µg/mL (≈ 0.135 µM)

Molecule: CC(=O)O[C@H]1C[C@@]2(C)[C@@H](C[C@@H](O)[C@H]3[C@@]4(C)CC[C@@H](O)[C@@H](C)[C@@H]4CC[C@@]32C)/C1=C(\CCC=C(C)C)C(=O)O [Fusidic acid]
protein binding [3]: 95-97%
MBC Range ([1]; 10 strains): 0.12 to 0.5 µg/mL
MIC 90% ([1]; 10 strains): 0.5 µg/mL (≈ 0.968 µM)
MIC Range ([1]; 10 strains): 0.12 to 0.5 µg/mL
MIC range ([1]; 10 strains): 0.12 to 0.5 µg/mL
MBC ([1]; 10 strains, read-out: MBC 90%): 0.5 µg/mL (≈ 0.968 µM)
MIC90 ([1]; 10 strains of C. trachomatis): 0.5 µg/mL (≈ 0.968 µM)
MBC [1, 5]: 0.5 µg/mL (≈ 0.968 µM)
Occurrences at MIC 0.25 μg/ml [2]: 12
Occurrences at MIC 0.5 μg/ml [2]: 17
Occurrences at MIC 1 μg/ml [2]: 5
Occurrences at MIC 2 μg/ml [2]: 1
MIC90 ([2]; Neisseria gonorrhoeae, 35 N. gonorrhoeae strains): 1 µg/mL (≈ 1.94 µM)
MIC50 [2, 6]: 0.5 µg/mL (≈ 0.968 µM)
Concentration at which active against all strains tested ([2]; all N. gonorrhoeae strains tested): ≤ 2 µg/mL

Occurrences at MIC 0.015 μg/ml [2, 4]: 6
Occurrences at MIC 0.03 μg/ml [2, 4]: 6
Occurrences at MIC 0.06 μg/ml [2, 4]: 3
Occurrences at MIC 0.12 μg/ml [2, 4]: 2
Occurrences at MIC ≦0.008 μg/ml [2, 4]: 18
Molecule: CO/N=C(\C(=O)N[C@@H]1C(=O)N2C(C(=O)O)=C(CSc3nc(=O)c(=O)[nH]n3C)CS[C@H]12)c1csc(N)n1 [Ceftriaxone, ceftriaxone]
% by category, R (resistant); resistance rate [2]: 0.0%
% by category, S (susceptible) [2]: 100.0/— %

Molecule: CC(=O)O[C@H]1C[C@@]2(C)[C@@H](C[C@@H](O)[C@H]3[C@@]4(C)CC[C@@H](O)[C@@H](C)[C@@H]4CC[C@@]32C)/C1=C(\CCC=C(C)C)C(=O)[O-].[Na+] [CEM 102, Sodium fusidate]
MIC ([1]; strain 7015): 0.5 µg/mL
MBC ([1]; strain 7015, read-out: MBC): 0.5 µg/mL
MIC ([1]; strain Ct D): 0.5 µg/mL
MBC ([1]; strain Ct D, read-out: MBC): 0.5 µg/mL
MIC ([1]; strain Ct E): 0.5 µg/mL
MBC ([1]; strain Ct E, read-out: MBC): 0.5 µg/mL
MIC ([1]; strain Ct F): 0.5 µg/mL
MBC ([1]; strain Ct F, read-out: MBC): 0.5 µg/mL
MIC ([1]; strain Ct H): 0.5 µg/mL
MBC ([1]; strain Ct H, read-out: MBC): 0.5 µg/mL
MIC ([1]; strain Ct I): 0.5 µg/mL
MBC ([1]; strain Ct I, read-out: MBC): 0.5 µg/mL
MIC ([1]; strain Ct J): 0.5 µg/mL
MBC ([1]; strain Ct J, read-out: MBC): 0.5 µg/mL
MIC ([1]; strain L2): 0.25 µg/mL
MBC ([1]; strain L2, read-out: MBC): 0.25 µg/mL
MIC ([1]; strain N18): 0.25 µg/mL
MBC ([1]; strain N18, read-out: MBC): 0.25 µg/mL
MIC ([1]; strain N19): 0.125 µg/mL
MBC ([1]; strain N19, read-out: MBC): 0.125 µg/mL
MIC90 ([1]; 10 strains of C. trachomatis): 0.5 µg/mL
MBC [1, 5]: 0.5 µg/mL

Molecule: CN(C)[C@@H]1C(O)=C(C(N)=O)C(=O)[C@@]2(O)C(O)=C3C(=O)c4c(O)cccc4[C@@](C)(O)[C@H]3C[C@@H]12 [Tetracycline, tetracycline]
% by category, R (resistant); resistance rate [2]: 34.3%
% by category, S (susceptible) [2]: 22.9%
MIC50 [2, 6]: 1 µg/mL (≈ 2.25 µM)
Occurrences at MIC 0.12 μg/ml [2, 4]: 6
Occurrences at MIC 0.25 μg/ml [2, 4]: 2
Occurrences at MIC 0.5 μg/ml [2, 4]: 8
Occurrences at MIC 1 μg/ml [2, 4]: 7
Occurrences at MIC 2 μg/ml [2, 4]: 7
Occurrences at MIC 4 μg/ml [2, 4]: 1
Occurrences at MIC >4 μg/ml [2, 4]: 4

MIC 90% ([1]; 10 strains): 0.12 µg/mL (≈ 0.16 µM)
MIC Range ([1]; 10 strains): 0.015 to 0.12 µg/mL
MIC90 ([1]; 10 strains of C. trachomatis): 0.12 µg/mL (≈ 0.16 µM)
MIC50 [2, 6]: 0.25 µg/mL (≈ 0.334 µM)
Occurrences at MIC 0.06 μg/ml [2, 4]: 1
Occurrences at MIC 0.12 μg/ml [2, 4]: 15
Occurrences at MIC 0.25 μg/ml [2, 4]: 12
Occurrences at MIC 0.5 μg/ml [2, 4]: 5
Occurrences at MIC 1 μg/ml [2, 4]: 1
Occurrences at MIC 2 μg/ml [2, 4]: 1
Molecule: CC[C@H]1OC(=O)[C@H](C)[C@@H](O[C@H]2C[C@@](C)(OC)[C@@H](O)[C@H](C)O2)[C@H](C)[C@@H](O[C@@H]2O[C@H](C)C[C@H](N(C)C)[C@H]2O)[C@](C)(O)C[C@@H](C)CN(C)[C@H](C)[C@@H](O)[C@]1(C)O [Azithromycin, azithromycin]
MBC Range ([1]; 10 strains): 0.015 to 0.12 µg/mL
MBC ([1]; 10 strains, read-out: MBC 90%): 0.12 µg/mL (≈ 0.16 µM)
% by category, R (resistant); resistance rate [2]: 0.0%
